Activity calls are given as the source filed them.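 The calls were made as follows: active = IC50 against T. cruzi CYP51 below a set limit; inactive = the rest.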
target: Sterol 14-alpha demethylase (Trypanosoma cruzi (strain CL Brener)) (UniProt Q7Z1V1); assay: T. cruzi sterol 14-alpha demethylase inhibition – biochemical, recombinant enzyme, mechanism study for T. cruzi antiparasitic project, dose response (AID 1159558);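 also: enzyme in bacterial membranes with Anopheles gambiae CYP reductase and cytochrome b5 partners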; conditions: recombinant T. cruzi CYP51, BOMCC fluorescence
Sequence (Q7Z1V1 whole entry, looked up): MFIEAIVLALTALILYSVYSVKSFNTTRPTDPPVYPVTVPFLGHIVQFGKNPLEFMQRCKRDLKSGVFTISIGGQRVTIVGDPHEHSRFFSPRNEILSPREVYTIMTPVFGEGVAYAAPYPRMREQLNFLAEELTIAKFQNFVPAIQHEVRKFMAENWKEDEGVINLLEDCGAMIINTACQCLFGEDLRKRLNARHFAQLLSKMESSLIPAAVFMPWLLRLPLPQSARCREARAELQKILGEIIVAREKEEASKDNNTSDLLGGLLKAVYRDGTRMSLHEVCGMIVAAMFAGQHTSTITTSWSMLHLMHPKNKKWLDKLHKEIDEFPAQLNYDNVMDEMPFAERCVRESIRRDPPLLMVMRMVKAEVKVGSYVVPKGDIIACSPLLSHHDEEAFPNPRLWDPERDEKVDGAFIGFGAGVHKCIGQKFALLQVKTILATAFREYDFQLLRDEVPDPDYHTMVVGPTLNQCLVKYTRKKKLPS

SMILES	IC50
CCCCn1c(=O)c2c(N)onc2n(CCCC)c1=O	79 µM
Cc1cc(C)n(-c2nc(NC(C)C)nc(NC(C)(C)C)n2)n1	> 100 µM (inactive)
COc1ccc(C(=O)NC2CCN(CCn3c(=O)ccc4ncc(F)cc43)CC2)cc1Cl	16 µM
COc1ccc(-c2cc(C)no2)cc1S(=O)(=O)Nc1ccc(F)c(Cl)c1	> 100 µM (inactive)
COc1ccc(Oc2ccc(C(C)N(C)c3ncc4c(N)nc(N)nc4n3)cc2)cc1 (stereo unspecified)	1.6 µM
COc1ccc(C2C3CCCCC3(O)CCN2CC(=O)Nc2ccc(Cl)cc2Cl)cc1 (stereo unspecified)	10 µM
Cc1cc(Nc2cc(C3CC3)[nH]n2)nc(N2CCCC2)n1	> 100 µM (inactive)
CCOc1ccc(NC(=O)c2ccc(NC(=O)NC3CCCCC3)cc2)cc1	> 100 µM (inactive)
O=C1c2cnc(N3CCCC3)nc2CN1c1ccc2c(c1)OCO2	> 100 µM (inactive)
CN(C)CCOc1ccc(N2CCN(S(=O)(=O)c3ccc(Cl)cc3)CC2)cc1	25 µM
O=C(Nc1nc(-c2ccc(S(=O)(=O)N3CCOCC3)cc2)cs1)c1ccc([N+](=O)[O-])cc1	> 100 µM (inactive)
COc1cc(Cl)c(C)cc1NC(=O)c1ccc([N+](=O)[O-])s1	16 µM
Cc1[nH]n2c(=O)c3c(nc2c1-c1ccc(F)cc1)CCCC3	> 100 µM (inactive)
COc1ccc2ncc(F)c(CCN3CC[C@@H](NC(=O)c4cc5c(s4)CCC5)[C@@H](O)C3)c2n1	1.3 µM
CCOc1ccc(N(C)S(=O)(=O)c2ccc3[nH]cc(C(=O)NC4CCCC4)c(=O)c3c2)cc1	6.3 µM
Cc1cccc(NS(=O)(=O)c2ccc3c(c2)C(=O)c2cc(S(=O)(=O)Nc4cccc(C)c4C)ccc2-3)c1C	> 100 µM (inactive)
Cc1ccc(NC(=O)C(C)n2nc([N+](=O)[O-])c(Br)c2C)cc1Cl (stereo unspecified)	> 100 µM (inactive)
CCN(CC)S(=O)(=O)c1ccc(Cn2nc(C(=O)Nc3ccncn3)c3ccccc32)cc1	0.16 µM
Cc1c([N+](=O)[O-])c(C(=O)Nc2sc3c(c2C#N)CCC(C)C3)nn1C (stereo unspecified)	> 100 µM (inactive)
COc1ccc(OC)c(S(=O)(=O)N(Cc2c(F)cccc2F)[C@@H]2CCN(C#N)C2)c1	> 100 µM (inactive)
COc1ccc(NS(=O)(=O)c2cc(-c3cc(C)[nH]n3)ccc2C)cc1OC	40 µM
COc1ccc(NS(=O)(=O)c2cc(NC(=O)c3ccc([N+](=O)[O-])s3)ccc2OC)cc1	1 µM

SMILES	IC50
CC(C)c1cc(C(=O)N2CCCC(c3cc4ncccc4[nH]3)C2)on1 (stereo unspecified)	50 µM
Cc1cc2ncn(-c3ccc([N+](=O)[O-])cc3C#N)c2cc1C	> 100 µM (inactive)
CS(=O)(=O)NC1CCC(Oc2cc3cnccc3cc2-c2ccsc2)CC1 (stereo unspecified)	0.025 µM
CC(Cn1ccnc1)NC(=O)COc1ccc(Cl)c(Cl)c1 (stereo unspecified)	0.063 µM
Cc1ccc(NC(=O)c2ccc(Cl)c(NC(=O)c3ccc([N+](=O)[O-])cc3)c2)cc1	> 100 µM (inactive)
CCC(=O)N1N=C(c2ccc3c(c2)CCCC3)Sc2c1ncn2C(=O)CC	> 100 µM (inactive)
Cc1ccc(CNC2CCN(C[C@@H]3Cn4c(=O)ccc5ccc(=O)n3c54)CC2)cc1F	> 100 µM (inactive)
CC(C(=O)Nc1ccc(Br)cc1)N1CCN(c2ccc([N+](=O)[O-])cc2)CC1 (stereo unspecified)	40 µM
O=C(Nc1cccc(Cl)c1)Nc1ccc([N+](=O)[O-])cc1Cl	5 µM
Fc1ccccc1N1C[C@H]2CCN(c3cccnc3)C[C@H]2C1	0.063 µM
COc1ccc(C(C)(C)C)cc1S(=O)(=O)n1ccnc1	0.0079 µM
COc1cc(OC)cc(C(=O)N[C@@H](CC(C)C)C(=O)NC2(C#N)CC2)c1	> 100 µM (inactive)
COc1ccc(CN2CCCCC2c2nc(-c3cccnc3)no2)cc1 (stereo unspecified)	0.2 µM
Cc1cc(NC(=O)CC2CCCCC2)n(-c2nc3c(c(=O)[nH]2)CCC3)n1	> 100 µM (inactive)
Cc1cc(NC(=O)C2CC2)ccc1OC1CCN(Cc2ccco2)CC1	63 µM
CC(C)Nc1nc(Cl)nc2ccccc12	> 100 µM (inactive)
CCc1nn(-c2ncc(F)c(NC(C)C)n2)c(N)c1C1CCCCC1	> 100 µM (inactive)
CN1CCN(c2nc(-c3ccc(Cl)cc3)c3c(N)n(C)nc3n2)CC1	> 100 µM (inactive)
COc1cc(C(C)C)c(S(C)(=O)=O)cc1C(=O)N1CCN(c2ccccc2Cl)CC1	> 100 µM (inactive)
O=C(NCc1ccc(Cl)cc1)C1CN(C(=O)c2ccc(F)cc2)CCS1 (stereo unspecified)	13 µM
CC(C)Oc1cccc(N2CCC(C(=O)N3CCCN(C(C)C)CC3)CC2)c1	> 100 µM (inactive)
COc1ccc(-c2cnc(C)o2)cc1S(=O)(=O)Nc1ccc(C)cc1C	25 µM

Second part, the compound after the results:

IC50	SMILES
> 100 µM (inactive)	NC(=O)c1ccccc1Nc1nc(NC2CCCCC2)nc2[nH]ccc12
25 µM	Cc1nn(-c2ccccc2)nc1CNC(=O)CN(Cc1ccccn1)Cc1ccccn1
32 µM	Oc1c(-c2n[nH]c(Cc3ccc(Cl)cc3)n2)ncc2cccnc12
> 100 µM (inactive)	CCc1cc(C(=O)Nc2nccn2-c2ccccc2)cs1
> 100 µM (inactive)	CCOc1ccc2nc(NC(=O)c3ccc([N+](=O)[O-])s3)sc2c1
> 100 µM (inactive)	CCN(CC)c1nc(Nc2ccncc2)nc2ccccc12
25 µM	C[C@@H](Oc1cc(-n2cnc3ccc(CC(O)CO)cc32)sc1C(N)=O)c1ccccc1Cl (stereo partly specified)
> 100 µM (inactive)	O=C(Cn1cnc2cc([N+](=O)[O-])ccc2c1=O)NCCc1ccc(Cl)cc1Cl
> 100 µM (inactive)	Cc1[nH]c2ccccc2c(=O)c1Cc1c(C)[nH]c2ccccc2c1=O
> 100 µM (inactive)	CCCNC(=O)Nc1cccc(-c2nc3ncccc3o2)c1
> 100 µM (inactive)	COCc1cc(Nc2ccccc2)nc(-c2ccccn2)n1
> 100 µM (inactive)	O=C(NCc1nnc2n1CCCCC2)c1csc(-c2ccccc2)n1
0.16 µM	CN(Cc1cccnc1)Cc1ccc(N2CCN(C(=O)C3(c4ccc(Cl)cc4)CC3)CC2)nc1
0.1 µM	CC(=Cc1ccccc1)CN1CCC(=O)N(Cc2cccnc2)CC1
79 µM	CCc1ccccc1[C@@H](C)NC(=O)c1cnc2c(cnn2CC)c1NC1CCN(C(N)=O)CC1
> 100 µM (inactive)	O=c1[nH]c(C=Cc2cccc(OCCOc3ccccc3)c2)nc(O)c1[N+](=O)[O-]
32 µM	CC(c1ccccn1)N(C)Cc1nc2ccccc2n1C(C)C (stereo unspecified)
0.13 µM	CC1=C(C(=O)Nc2ccc(Cl)cc2)C(c2ccncc2)n2ncc(C(=O)Nc3ccccc3)c2N1 (stereo unspecified)
40 µM	COc1ccc(C(=O)[C@H]2C[C@@H]2CN(Cc2ccccn2)Cc2ccccn2)cc1

IC50	SMILES
> 100 µM (inactive)	Oc1cccnc1-c1n[nH]c(Cc2ccccc2)n1
40 µM	O=C(CN(Cc1ccccn1)Cc1ccccn1)NCc1csc(-c2cccs2)n1
0.063 µM	O=C(c1cc2cc(Cl)ccc2[nH]1)N1CCCCC1c1cccnc1 (stereo unspecified)
1.3 µM	O=C(NC(CO)c1ccc(F)cc1)c1ccc(-c2c[nH]c3ncccc23)s1 (stereo unspecified)
16 µM	CC(C(=O)Nc1ccccc1F)N(C)CC(=O)Nc1cccc2ccccc12 (stereo unspecified)
0.063 µM	O=C(NCCc1cccnc1)c1csc(-c2ccccc2)n1
40 µM	Cc1ccc(C)c(CN2C(=O)NC3(CCc4ccccc43)C2=O)c1 (stereo unspecified)
63 µM	Cn1nc(-c2ccc(NC(=O)Cc3ccccc3Cl)cc2)c2c(N)ncnc21
> 100 µM (inactive)	CCOc1ccc(CC(=O)N2c3ccccc3CC2C(=O)NC)cc1 (stereo unspecified)
79 µM	NC(=O)c1cc(NC(=O)c2ccccc2COc2ccccc2)ccc1Cl
0.5 µM	COc1ccc(CN2C(=O)C(O)(CC(=O)c3ccncc3)c3cc(Br)ccc32)cc1OC (stereo unspecified)
32 µM	Cc1nc(C(=O)Nc2ccc3c(c2)OCO3)nn1-c1ccc(Cl)cc1
32 µM	N#Cc1cc(-c2ccnc(Nc3cccc(CN4CCOCC4)c3)n2)ccc1NCCN
> 32 µM (inactive)	O=C(Nc1ccc(C(F)(F)F)cc1)NC1(C(=O)NCc2ccco2)CCCCC1
79 µM	O=C(CN(Cc1ccccn1)Cc1ccccn1)NC1Cc2ccccc2C1
50 µM	CC(=O)NC1(c2ccccc2)CCN(CC(=O)Nc2ccccc2-c2ccccc2)CC1
0.063 µM	COc1cccc(CCNC(=O)C(c2cn[nH]c2)N2CCN(c3ccc(Cl)cc3)CC2)c1 (stereo unspecified)
> 100 µM (inactive)	N#CN1CC[C@@H](NC(=O)Nc2ccccc2Oc2ccccc2)C1
> 100 µM (inactive)	COc1cccc(Nc2cc(C)nc(-c3ccccn3)n2)c1

IC50	SMILES
20 µM	O=C(c1cccc(Nc2ncc(-c3ccc4c(c3)OCO4)cn2)c1)N1CCOCC1
40 µM	CN(Cc1nc2ccc(C(=O)NCC3CCCCC3)cc2[nH]1)C1CCCc2cccnc21 (stereo unspecified)
63 µM	Cc1cc(Br)sc1CNCCCNc1cc(=O)c2ccccc2[nH]1
6.3 µM	CN(C)Cc1cccc(Nc2nccc(-c3ccc(NCCN)c(C#N)c3)n2)c1
> 100 µM (inactive)	O=C(NCC1CCCCN1C(=O)c1cccc2ccccc12)c1ccccc1 (stereo unspecified)
> 100 µM (inactive)	COc1ccc(-c2nc3ncccc3o2)cc1NC(=O)c1cccs1
0.079 µM	N#Cc1ccc(S(=O)(=O)N2CCN(Cc3cccc(-c4ccncc4)c3)CC2)cc1
> 100 µM (inactive)	COc1ccc(NS(=O)(=O)c2cc(NC(=O)Cc3ccc(C)cc3)ccc2N2CCOCC2)cc1
20 µM	COc1ccc(Nc2nc(-c3ccccn3)cs2)c(OC)c1
0.1 µM	Cc1ccc2c(c1)-c1onc(C(=O)N3CCCCC3c3cccnc3)c1CO2 (stereo unspecified)
13 µM	COc1ccc(C2CC(c3ccc(NS(C)(=O)=O)cc3)=NN2C(=O)c2cccs2)cc1OC (stereo unspecified)
1.3 µM	C[C@@H](Oc1cc(-n2cnc3ccc(O[C@H]4CCNC4)cc32)sc1C(N)=O)c1ccccc1Cl
3.2 µM	C[C@@H](Oc1cc(-n2cnc3cc(N)ccc32)sc1C(N)=O)c1ccccc1Cl
32 µM	CC(=O)Nc1ccc(Nc2nccc(-c3cnn4ncccc34)n2)cc1C(F)(F)F
0.063 µM	COc1cccc(C(=O)[C@H]2C[C@@H]2CN(Cc2cccnc2)Cc2cccnc2)c1
16 µM	CCOc1ccc(CN(C)Cc2nc(N)nc(Nc3ccc(C)cc3)n2)cc1
0.079 µM	O=C(NCc1ccncc1)c1ccccc1N1CCCN(C(=O)Cc2ccc(F)c(F)c2)CC1
> 100 µM (inactive)	OCCCNc1nc(Nc2ccncc2)nc2ccccc12
6.3 µM	O=C(Nc1nc(-c2ccccn2)cs1)c1ccc(S(=O)(=O)N2CCCCC2)cc1
